pIC50: −log10 of the molar value.
System: HCV RNA replication (replicon cell lines Huh-7, 5.2 and ET)
Assay: Cell-Based Luciferase Reporter HCV RNA Replication Assay
Settings: Hepatitis C virus, Huh-7, 96 h, Huh-7, 5.2 or ET replicon cells, luciferase counts after 4 days incubation; read-out: IC50

| SMILES | pIC50 |
| --- | --- |
| COC1CCC(N(C(=O)C2CCC(C)CC2)c2cc(C3CCC(F)(F)CC3)sc2C(=O)O)CC1 (stereo not drawn) [Compound 122, 5-(4,4-difluoro-cyclohexyl)-3-[(4-trans-methoxy-cyclohexyl)-(4-trans-methyl-cyclohexanecarbonyl)-amino]-thiophene-2-carboxylic acid] | > 5.30 |
| COC1CCC(N(C(=O)C2CCC(C)CC2)c2cc(C3CC=C(F)CC3)sc2C(=O)O)CC1 (stereo not drawn) [Compound 123, RS-5-(4-fluoro-cyclohex-3-enyl)-3-[(4-trans-methoxy-cyclohexyl)-(4-trans-methyl-cyclohexanecarbonyl)-amino]-thiophene-2-carboxylic acid] | > 5.30 |
| CCOCO[C@H]1CC[C@H](N(c2cc(C3=CCCCC3)sc2C(=O)O)C(=O)[C@H]2CC[C@H](C)CC2)CC1 [Compound 125, 5-cyclohex-1-enyl-3-[(trans-4-ethoxymethoxy-cyclohexyl)-(trans-4-methyl-cyclohexanecarbonyl)-amino]-thiophene-2-carboxylic acid] | > 5.30 |
| CC1CCC(C(=O)N(c2cc(C3=CCCCC3)sc2C(=O)O)C2CCN(c3ccccc3)CC2)CC1 (centres unmarked) [Compound 127, 5-cyclohex-1-enyl-3-[(trams, 4-methyl-cyclohexanecarbonyl)-(1-phenyl-piperidin-4-yl)-amino]-thiophene-2-carboxylic acid] | > 5.30 |
| CCN1CC2(CCC(N(C(=O)C3CCC(C)CC3)c3cc(C4=CCCCC4)sc3C(=O)O)CC2)CC1=O (stereo not drawn) [Compound 129, 5-cyclohex-1-enyl-3-[trans(2-ethyl-33-oxo-2-aza-spiro[4.5]dec-8-yl)-(trans-4-methylcyclohexanecarbonyl)-amino]-thiophene-2-carboxylic acid] | > 5.30 |
| CC(C)C(=O)N[C@H]1CC[C@@H](N(c2cc(C3=CCCCC3)sc2C(=O)O)C(=O)[C@H]2CC[C@H](C)CC2)CC1 [Compound 133, 5-cyclohex-1-enyl-3-[(cis-4-isobutyrylamino-cyclohexyl)-(trans-4-methyl-cyclohexanecarbonyl)-amino]-thiophene-2-carboxylic acid] | > 5.30 |
| CC(C)C(=O)N[C@H]1CC[C@H](N(c2cc(C3=CCCCC3)sc2C(=O)O)C(=O)[C@H]2CC[C@H](C)CC2)CC1 [Compound 134, 5-cyclohex-1-enyl-3-[(trans-4-isobutyrylamino-cyclohexyl)-(trans-4-methyl-cyclohexanecarbonyl)-amino]-thiophene-2-carboxylic acid] | > 5.30 |
| CC1(C)CCC(c2cc(N(C(=O)[C@H]3CC[C@H](C)CC3)[C@H]3CC[C@H](n4ccnn4)CC3)c(C(=O)O)s2)CC1 [Compound 135, 5-(4,4-dimethyl-cyclohexyl)-3-[(trans-4-methyl-cyclohexanecarbonyl)-(trans-4-[1,2,3]triazol-1-yl-cyclohexyl)-amino]-thiophene-2-carboxylic acid] | > 5.30 |
| C[C@H]1CC[C@H](C(=O)N(c2ccc3c(c2)OCO3)c2cc(C3=CCCCC3)sc2C(=O)O)CC1 [Compound 136, 3-[benzo[1,3]dioxol-5-yl-(trans-4-methyl-cyclohexanecarbonyl)-amino]-5-cyclohex-1-enyl-thiophene-2-carboxylic acid] | > 5.30 |
| COC1CCC(N(C(=O)C2CCC(C)CC2)c2cc(C3CCC(F)CC3)sc2C(=O)O)CC1 (stereo not drawn) [Compound 137, 5-(4-ciz-trans-fluoro-cyclohexyl)-3-[(4-trans-methoxy-cyclohexyl)-(4-trans-methyl-cyclohexanecarbonyl)-amino]-thiophene-2-carboxylic acid] | > 5.30 |
| COC1CCC(N(C(=O)C2CCC(C)CC2)c2cc(C3=CCCC(C)(C)C3)sc2C(=O)O)CC1 (stereo not drawn) [Compound 138, 5-(5,5-dimethyl-cyclohex-1-enyl)-3-[(4-trans-methoxy-cyclohexyl)-(4-trans-methyl-cyclohexanecarbonyl)-amino]-thiophene-2-carboxylic acid] | > 5.30 |
| CC(C)C(=O)N1CCC(N(c2cc(C3=CCCCC3)sc2C(=O)O)C(=O)[C@H]2CC[C@H](C)CC2)CC1 [Compound 141, 5-Cyclohex-1-enyl-3-[(1-isobutyryl-piperidin-4-yl)-(trans-4-methylcyclohexanecarbonyl)-amino]-thiophene-2-carboxylic acid] | > 5.30 |
| CSCO[C@H]1CC[C@H](N(c2cc(C3=CCCCC3)sc2C(=O)O)C(=O)[C@H]2CC[C@H](C)CC2)CC1 [Compound 142, 5-cyclohex-1-enyl-3-[(trans-4-methyl-cyclohexanecarbonyl)-(trans-4-methylsulfanylmethoxy-cyclohexyl)-amino]-thiophene-2-carboxylic acid] | > 5.30 |

Same assay, conditions: Huh-7, 5.2 or ET replicon cells, luciferase counts after 4 days incubation; read-out: IC50

| SMILES | pIC50 |
| --- | --- |
| CC1CCC(C(=O)N(c2cc(C3=CCCCC3)sc2C(=O)O)C2CCC3(CC2)CC(=O)N(C)C3)CC1 (stereo not drawn) [Compound 128, 5-cyclohex-1-enyl-3-[(trans-4-methyl-cyclohexanecarbonyl)-trans(2-methyl-3-oxo-2-aza-spiro[4.5]dec-8-yl)-amino]-thiophene-2-carboxylic acid] | > 5.30 |
| CCN1CC2(CCC(N(C(=O)C3CCC(C)CC3)c3cc(C4=CCCCC4)sc3C(=O)O)CC2)CC1=O (stereo not drawn) [Compound 130, 5-cyclohex-1-enyl-3-[cis(2-ethyl-3-oxo-2-aza-spiro[4.5]dec-8-yl)-(trans-4-methylcyclohexanecarbonyl)-amino]-thiophene-2-carboxylic acid] | > 5.30 |
| COCC1CCC(N(C(=O)C2CCC(C)CC2)c2cc(C3=CCCCC3)sc2C(=O)O)CC1 (stereo not drawn) [Compound 131, 5-cyclohex-1-enyl-3-[(4-cis-methoxymethyl-cyclohexyl)-(4-trans-methyl-cyclohexanecarbonyl)-amino]-thiophene-2-carboxylic acid] | > 5.30 |
| COCC1CCC(N(C(=O)C2CCC(C)CC2)c2cc(C3=CCCCC3)sc2C(=O)O)CC1 (stereo not drawn) [Compound 132, 5-cyclohex-1-enyl-3-[(4-trans-methoxymethyl-cyclohexyl)-(4-trans-methyl-cyclohexanecarbonyl)-amino]-thiophene-2-carboxylic acid] | > 5.30 |

— patent US8674118B2, “Compounds and methods for the treatment or prevention of flavivirus infections” (priority 2005, dated 2014)
